Data on 26 molecules can be found in patent publication US20100190747A1, “Fused ring compound and use thereof” (priority 2009, published 2010).

T1 sequence (Q920R3 whole entry): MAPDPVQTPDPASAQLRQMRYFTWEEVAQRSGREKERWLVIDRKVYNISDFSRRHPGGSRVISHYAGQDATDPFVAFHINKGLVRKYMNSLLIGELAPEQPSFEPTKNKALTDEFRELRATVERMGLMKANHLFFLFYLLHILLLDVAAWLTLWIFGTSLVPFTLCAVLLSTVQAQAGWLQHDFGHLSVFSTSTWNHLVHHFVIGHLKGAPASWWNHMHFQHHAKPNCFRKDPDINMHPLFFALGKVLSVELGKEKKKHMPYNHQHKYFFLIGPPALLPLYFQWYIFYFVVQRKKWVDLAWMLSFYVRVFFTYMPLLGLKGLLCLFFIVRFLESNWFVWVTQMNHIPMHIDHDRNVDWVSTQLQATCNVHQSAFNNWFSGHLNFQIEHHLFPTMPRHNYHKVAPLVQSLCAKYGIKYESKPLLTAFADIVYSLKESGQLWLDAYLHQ

The assay has as its target T1, delta-5-desaturase (Rattus norvegicus, UniProt Q920R3).
T1 construct: the microsomal fraction of a rat river (10 μl), which had been diluted to 3 mg/ml; from tissue; host or cells: rat liver microsomal fraction
As to the kind of experiment: Inhibitory activity on delta-5-desaturase (rat liver microsomal fraction, 14C-eicosatrienoic acid, TLC). The class given is biochemical. Conditions: test compound at 10 μM, room temperature, 120 minutes. As to the method:
An inhibitory activity of a test compound on delta-5-desaturase was measured according to the method described herein below. To a DMSO solution of the test compound which had been previously prepared, secondary dilution was carried out by using a buffer (300 mM NaH2PO4 [pH 7.4], 450 mM KCl, 30 mM NaF, 9 mM MgCl2, 4.5 mM glutathione [reduced form], 0.3% BSA [fatty acid free, SIGMA]). This diluent compound (10 μl) was added in a 96-well deep well block made of polypropylene, and then the microsomal fraction of a rat river (10 μl), which had been diluted to 3 mg/ml by using a microsome buffer (10 mM Tris-HCl [pH 7.4], 1 mM EDTA, and 250 mM sucrose), was added thereto. The enzyme reaction was initiated by adding 10 μl of 9 mM NADH, 9 mM ATP, 0.9 mM CoA and 10 μCi/ml (8E,11E,14E)-(1-^14C)eicosa-8,11,14-trienoic acid (PerkinElmer Inc.). The enzyme reaction was carried out at room temperature for 120 minutes, and then terminated by addition of 2.5 M NaOH (10 μl). Upon the completion of the reaction, the plate was covered with plate seal and incubated overnight in a dry heater of which temperature was set at 55° C. for saponification. Based on Bligh & Dyer method which had been described in a known document, Canadian Journal of Biochemistry and Physiology (Can. J. Biochem. Physiol.), Vol. 37, page 911, 1959), the solvent extraction of fatty acid was carried out by adding 200 μl of formic acid:methanol:chloroform (1:6:3), keeping the mixture as a single layer for a while, stirring the mixture to a sufficient level, and adding 120 μl of pure water to separate the mixture into two layers. 10 μl of the bottom chloroform layer was spotted on a reverse phase TLC plate (RP-18, 1154230001, Merck Japan, Ltd.) and then developed with acetonitrile:pure water:acetic acid (95:4.5:0.5). The TLC plate obtained after drying was transferred to an Imaging Plate (Fuji Photo Film Co., Ltd.) for more than 5 hours. Detection was carried out by using BAS-5000 (Fuji Photo Film Co., Ltd.). Numerization of thus-obtained image was carried out by using Multi Gauge Ver 2.3 (Fuji Photo Film Co., Ltd.) and an inhibitory ratio (%) of the test compound at 10 μM on delta-5-desaturase was obtained.
Take `O=c1c2cc[nH]c2nc(OC2CCC2)n1-c1ccc(OCC(F)(F)F)cc1` [Example 247, 2-(Cyclobutyloxy)-3-[4-(2,2,2-trifluoroethoxy)phenyl]-3,7-dihydro-4H-pyrrolo[2,3-d]pyrimidin-4-one]: the inhibition at 10 µM was 103%.

As for `O=C1Cc2c(nc(Sc3ccc(F)cc3)n(-c3ccc(OCC(F)(F)F)cc3)c2=O)N1` [Example 336, 2-[(4-Fluorophenyl)sulfanyl]-3-[4-(2,2,2-trifluoroethoxy)phenyl]-5,7-dihydro-3H-pyrrolo[2,3-d]pyrimidine-4,6-dione], the inhibition at 10 µM was determined as 101%. To `O=c1c2[nH]ccc2nc(SCCCCO)n1-c1ccc(OCC(F)(F)F)cc1` [Example 119, 2-[(4-Hydroxybutyl)sulfanyl]-3-[4-(2,2,2-trifluoroethoxy)phenyl]-3,5-dihydro-4H-pyrrolo[3,2-d]pyrimidin-4-one] belongs 102%; to `CS(=O)(=O)CCCSc1nc2cc[nH]c2c(=O)n1-c1ccc(OCC2CC2)cc1` [Example 154, 3-[4-(Cyclopropylmethoxy)phenyl]-2-{[3-(methylsulfonyl)propyl]sulfanyl}-3,5-dihydro-4H-pyrrolo[3,2-d]pyrimidin-4-one], 99%; to `O=c1c2[nH]ccc2nc(SCCCS(=O)(=O)CC2CC2)n1-c1ccc(OCC(F)(F)F)cc1` [Example 165, 2-({3-[(Cyclopropylmethyl)sulfonyl]propyl}sulfanyl)-3-[4-(2,2,2-trifluoroethoxy)phenyl]-3,5-dihydro-4H-pyrrolo[3,2-d]pyrimidin-4-one], 99%. In the case of `O=c1c2cc[nH]c2nc(SCC(F)(F)F)n1-c1ccc(OCC(F)(F)F)cc1` [Example 225, 3-[4-(2,2,2-Trifluoroethoxy)phenyl]-2-[(2,2,2-trifluoroethyl)sulfanyl]-3,7-dihydro-4H-pyrrolo[2,3-d]pyrimidin-4-one], the inhibition at 10 µM is 100%.

For `O=c1c2[nH]ccc2nc(SCCCS(=O)(=O)NC2CC2)n1-c1ccc(OCC(F)(F)F)cc1` [Example 108, N-cyclopropyl-3-({4-oxo-3-[4-(2,2,2-trifluoroethoxy)phenyl]-4,5-dihydro-3H-pyrrolo[3,2-d]pyrimidin-2-yl}sulfanyl)propane-1-sulfonamide], the inhibition at 10 µM was determined as 101%. Turning to `CCOCCCSc1nc2cc[nH]c2c(=O)n1-c1ccc(OCC(F)(F)F)cc1` [Example 81, 2-[(3-Ethoxypropyl)sulfanyl]-3-[4-(2,2,2-trifluoroethoxy)phenyl]-3,5-dihydro-4H-pyrrolo[3,2-d]pyrimidin-4-one], the inhibition at 10 µM amounted to 97%.

In the case of `CCSc1nc2[nH]ccc2c(=O)n1-c1ccc(OC(F)(F)F)cc1` [Example 254, 2-(Ethylsulfanyl)-3-[4-(trifluoromethoxy)phenyl]-3,7-dihydro-4H-pyrrolo[2,3-d]pyrimidin-4-one], the inhibition at 10 µM stood at 98%. To `O=c1c2cc[nH]c2nc(OCC(F)(F)C(F)(F)F)n1-c1ccc(OCC(F)(F)F)cc1` [Example 239, 2-(2,2,3,3,3-Pentafluoropropoxy)-3-[4-(2,2,2-trifluoroethoxy)phenyl]-3,7-dihydro-4H-pyrrolo[2,3-d]pyrimidin-4-one] belongs 101%; to `O=C1Cc2c(nc(SCC3CC3)n(-c3ccc(OCC(F)(F)F)c(F)c3)c2=O)N1` [Example 322, 2-[(Cyclopropylmethyl)sulfanyl]-3-[3-fluoro-4-(2,2,2-trifluoroethoxy)phenyl]-5,7-dihydro-3H-pyrrolo[2,3-d]pyrimidine-4,6-dione], 101%; to `CCSc1nc2c(c(=O)n1-c1ccc(OCC(F)(F)F)c(F)c1)CC(=O)N2` [Example 307, 2-(Ethylsulfanyl)-3-[3-fluoro-4-(2,2,2-trifluoroethoxy)phenyl]-5,7-dihydro-3H-pyrrolo[2,3-d]pyrimidine-4,6-dione], 99%. As to `O=C1Cc2c(nc(SCCC3CC3)n(-c3ccc(OCC(F)(F)F)cc3)c2=O)N1` [Example 329, 2-[(2-Cyclopropylethyl)sulfanyl]-3-[4-(2,2,2-trifluoroethoxy)phenyl]-5,7-dihydro-3H-pyrrolo[2,3-d]pyrimidine-4,6-dione], the inhibition at 10 µM was determined as 101%. To `CC(C)Sc1nc2c(c(=O)n1-c1ccc(OCC(F)(F)C(F)(F)F)cc1)CC(=O)N2` [Example 324, 2-[(1-Methylethyl)sulfanyl]-3-[4-(2,2,3,3,3-pentafluoropropoxy)phenyl]-5,7-dihydro-3H-pyrrolo[2,3-d]pyrimidine-4,6-dione] belongs 101%; to `CCOCCSc1nc2cc[nH]c2c(=O)n1-c1ccc(OCC(F)(F)F)cc1` [Example 74, 2-[(2-Ethoxyethyl)sulfanyl]-3-[4-(2,2,2-trifluoroethoxy)phenyl]-3,5-dihydro-4H-pyrrolo[3,2-d]pyrimidin-4-one], 101%.

As for `O=C(CCCSc1nc2cc[nH]c2c(=O)n1-c1ccc(OCC(F)(F)F)cc1)NCC(F)(F)F` [Example 75, 4-({4-Oxo-3-[4-(2,2,2-trifluoroethoxy)phenyl]-4,5-dihydro-3H-pyrrolo[3,2-d]pyrimidin-2-yl}sulfanyl)-N-(2,2,2-trifluoroethyl)butanamide], the inhibition at 10 µM amounted to 99%. For the molecule `CC(C)Oc1nc2[nH]ccc2c(=O)n1-c1ccc(OCC(F)(F)F)c(F)c1` [Example 316, 3-[3-Fluoro-4-(2,2,2-trifluoroethoxy)phenyl]-2-(1-methylethoxy)-3,7-dihydro-4H-pyrrolo[2,3-d]pyrimidin-4-one], the inhibition at 10 µM worked out at 103%. Turning to `N#CCCNC(=O)CCCSc1nc2cc[nH]c2c(=O)n1-c1ccc(OCC2CCC2)cc1` [Example 82, N-(2-cyanoethyl)-4-({3-[4-(cyclobutylmethoxy)phenyl]-4-oxo-4,5-dihydro-3H-pyrrolo[3,2-d]pyrimidin-2-yl}sulfanyl)butanamide], the inhibition at 10 µM was determined as 101%. As for `CCC(CC)Sc1nc2c(c(=O)n1-c1ccc(OCC(F)(F)F)cc1)CC(=O)N2` [Example 340, 2-[(1-Ethylpropyl)sulfanyl]-3-[4-(2,2,2-trifluoroethoxy)phenyl]-5,7-dihydro-3H-pyrrolo[2,3-d]pyrimidine-4,6-dione], the inhibition at 10 µM turned out to be 101%. To `CCSc1nc2cc[nH]c2c(=O)n1-c1ccc(OCC2CC2)cc1` [Example 153, 3-[4-(Cyclopropylmethoxy)phenyl]-2-(ethylsulfanyl)-3,5-dihydro-4H-pyrrolo[3,2-d]pyrimidin-4-one] belongs 98%; to `CCOCCSc1nc2cc[nH]c2c(=O)n1-c1ccc(OCC2CC2)cc1` [Example 143, 3-[4-(Cyclopropylmethoxy)phenyl]-2-[(2-ethoxyethyl)sulfanyl]-3,5-dihydro-4H-pyrrolo[3,2-d]pyrimidin-4-one], 101%. Regarding `CC(C)(O)CSc1nc2c(c(=O)n1-c1ccc(OCC(F)(F)F)cc1)CC(=O)N2` [Example 315, 2-[(2-Hydroxy-2-methylpropyl)sulfanyl]-3-[4-(2,2,2-trifluoroethoxy)phenyl]-5,7-dihydro-3H-pyrrolo[2,3-d]pyrimidine-4,6-dione], the inhibition at 10 µM is 99%. To `O=c1c2cc[nH]c2nc(SCC(O)COC2CCOCC2)n1-c1ccc(OCC(F)(F)F)cc1` (centres unmarked) [Example 219, 2-{[2-Hydroxy-3-(tetrahydro-2H-pyran-4-yloxy)propyl]sulfanyl}-3-[4-(2,2,2-trifluoroethoxy)phenyl]-3,7-dihydro-4H-pyrrolo[2,3-d]pyrimidin-4-one] belongs 102%. Regarding `COCCCSc1nc2cc[nH]c2c(=O)n1-c1ccc(OCC(F)(F)F)cc1` [Example 132, 2-[(3-Methoxypropyl)sulfanyl]-3-[4-(2,2,2-trifluoroethoxy)phenyl]-3,5-dihydro-4H-pyrrolo[3,2-d]pyrimidin-4-one], the inhibition at 10 µM amounted to 107%. `CC(C)S(=O)(=O)CCCSc1nc2cc[nH]c2c(=O)n1-c1ccc(OCC2CC2)cc1` [Example 164, 3-[4-(Cyclopropylmethoxy)phenyl]-2-({3-[(1-methylethyl)sulfonyl]propyl}sulfanyl)-3,5-dihydro-4H-pyrrolo[3,2-d]pyrimidin-4-one]: the inhibition at 10 µM came out at 101%. In the case of `CCc1c[nH]c2c(=O)n(-c3ccc(OCC(F)(F)F)cc3)c(SCCCC(=O)NCCC#N)nc12` [Example 171, N-(2-cyanoethyl)-4-({7-ethyl-4-oxo-3-[4-(2,2,2-trifluoroethoxy)phenyl]-4,5-dihydro-3H-pyrrolo[3,2-d]pyrimidin-2-yl}sulfanyl)butanamide], the inhibition at 10 µM is 98%.
